Measured values: PMC4888613, “Antifilarial activity of diterpenoids from Taxodium distichum” (Parasites & Vectors, 2016)
Where “and” joins values, the source holds several entries; their conditions need not be identical. Equal entries are not always repeated. Entries after “also recorded” stand apart in the source; their conditions may differ. Where two headings read alike, the source gives them in different places.

Legend:
CC50 cytotoxicity assay = assay type: cell-based, African green monkey; conditions: African green monkey
Experimental: (§1) The assay was run in replicates in each of the two independent experiments.
(§2) Data were transferred to a graphic program (MS Excel) and IC50 and CC50 were calculated by linear interpolation between the two concentrations above and below 50 % inhibition.

[1] = tested on: Brugia malayi microfilariae (Mf); test: In vitro motility assay on microfilariae; assay type: cell-based; conditions: for IC50: read-out: IC50 for Mf in MA
Experimental: (§3) Microfilariae and adult worms were harvested from p.c. of the M. unguiculatus harbouring approximately 5–6 month-old B. malayi infection. The parasites were washed thoroughly with HBSS (pH 7.2) containing antibiotics (penicillin: 100 U/ml; streptomycin: 100 μg/ml) and used for the present study.
(§4) Motility and 3-(4,5-dimethylthiazol-2-yl)-2,5 diphenyltetrazolium bromide (MTT; Sigma-Aldrich, USA) reduction assays that indicate viability of the parasites were used. Test samples and ivermectin (purity 95 %; Sigma-Aldrich, USA) were dissolved in dimethyl sulfoxide (DMSO; Sigma-Aldrich, USA); the final concentration of DMSO in the incubation medium Hanks Balanced Salt Solution (HBSS; Sigma-Aldrich, USA) containing 100 U/ml penicillin and 100 μg/ml streptomycin (Sigma-Aldrich, USA), was kept ≤ 0.1 %. Diethylcarbamazine-citrate (DEC-C; purity 100 %; Sigma-Aldrich, USA) solution was prepared in sterile distilled water. HBSS containing DMSO (≤ 0.1 %) alone was used as negative control.
(§5) In vitro efficacy of the test agents and reference drugs was assessed on mf (40–50 mf/100 μl/well) in a 96-well cell culture plate (Nunc, Denmark) and on adult female worms (1 worm/ml/well) in a 48-well plate (Nunc, Denmark). The assays were run in triplicates.
(§6) Motility assay using mf and adult worms was carried out as described elsewhere. Changes in parasite motility was assessed under a microscope and scored as: 0 = dead (100 %); 1-4 = loss of motility (1 = 75 %; 2 = 50 %; 3 = 25 %; and 4 = no loss of motility). The experiment was repeated twice.
(§7) IC50 and CC50 of the test agents were determined using the method described elsewhere. […] The experiments were repeated twice.
as §2

[2] = tested on: Brugia malayi adult worms (AW); test: MTT reduction assay on adult female worms; assay type: cell-based; conditions: for inhibition at 125 µg/mL: Brugia malayi, read-out: Mean % inhibition in MTT reduction by AW
Experimental: as §4, §5
MTT-reduction assay was carried out using adult worms as described elsewhere. The viability of the treated worms was assessed by calculating per cent inhibition in MTT-reduction potential of the treated worms over DMSO treated control parasites. A hundred percent inhibition in motility of female parasites or mf and or ≥ 50 % inhibition in MTT-reduction potential of the treated female parasites were considered to indicate positive antifilarial activity.
as §7

[3] = tested on: Brugia malayi adult worms (AW); test: In vitro motility assay on adult female worms; assay type: cell-based; conditions: for IC50: read-out: IC50 for AW in MA
Experimental: as §3, §4, §5, §6, §7, §2

Brugia malayi [4] = test: B. malayi-M. unguiculatus model (primary screening, intraperitoneal adult worm transplant); assay type: in vivo, Meriones unguiculatus; conditions: for Effect on mf in peritoneal cavity / Sterilised female worms (%) (embryostatic activity) / Total worms, % reduction over untreated (macrofilaricidal activity) / Sterilised female worm count / Worms recovered, Total: doses as in Table 2; for Sterilised female worms (%) (embryostatic activity) / Total worms, % reduction over untreated (macrofilaricidal activity) / Sterilised female worm count / Worms recovered, Female / Worms recovered, Male / Worms recovered, Total: day 56 p.i.t.; for Effect on adult worms: ivermectin 1 mg/kg; for Sterilised female worm count / Worms recovered, Female / Worms recovered, Male / Worms recovered, Total: mean ± SD; for Worms recovered, Female / Worms recovered, Male: x 5 days: A001 500 mg/kg p.o., K003/K004 100, ivermectin 1, DEC-C 25 mg/kg s.c.; for Worms recovered, Total: A001: the 5 of 6 animals without worms
Description: (§8) Meriones unguiculatus bearing intraperitoneally instilled adult worms and M. coucha inoculated with B. malayi L3 and showing microfilaremia in peritoneal cavity on day 3 post adult worm transplantation (p.a.t.) and progressive rise in microfilaraemia in peripheral circulation from day 120–180 post larval inoculation (p.l.i.), were employed as primary and secondary screening models, respectively, for assaying the antifilarial efficacy of the test agents.
(§9) The test agents were pulverised to fine powder and suspended in 1 % gum acacia/0.1 % Tween-80 in sterile distilled water. DEC-C and ivermectin were prepared in distilled water and ≤ 0.1 % Tween-80, respectively. The suspensions/solutions of the agents were prepared daily before administration to the animals.
(§10) Compounds K003 and K004 were given at 100 mg/kg body weight, subcutaneously (s.c.). The reference drugs DEC-C and ivermectin were administered to M. unguiculatus at 25 and 1 mg/kg body weight, respectively, while the M. coucha model received DEC-C at 50 mg/kg, body weight. […] Infected animals treated with vehicle only were used as control.
Male M. unguiculatus 8–10 weeks old (40–45 g) transplanted intraperitoneally with freshly isolated adult worms from B. malayi-infected M. unguiculatus were used for primary screening of test agents. On day 3 p.a.t., the peritoneal fluid was aspirated and checked for the presence of mf. The treatment was started on day 7/8 p.a.t. and continued for 5 consecutive days. On day 7/8 post-initiation of treatment (p.i.t) and thereafter at fortnightly intervals, the peritoneal fluid was examined under microscope to assess the condition of mf. All animals were killed on day 56 p.i.t. and parasites were collected from p.c., counted and examined for their viability and motility under microscope.
(§11) As a standard practice (following an accepted protocol) all the M. unguiculatus and M. coucha treated with test agents and vehicle were observed daily for their general health and behaviour (cage side observations) throughout the course of treatment and thereafter till termination of the experiment.
(§12) Microfilaricidal efficacy of the test agents was evaluated at each time point p.i.t and expressed as percent change in mf count over the pretreatment level.
(§13) Macrofilaricidal/adulticidal efficacy of the agents was assessed by calculating percent reduction in adult worm recovery in treated animals over untreated animals. Embryostatic/embryotoxic effect of agents was assessed by examining the uterine contents of female worms using the method described elsewhere and the percent of sterilised worms was determined from total female worms recovered from the treated and control animals.

VERO Cell line C1008 = test: CC50 cytotoxicity assay; assay type: cell-based, African green monkey; conditions: reference drugs, values in μM
Experimental: as §1, §2

Brugia malayi [5] = test: B. malayi-M. coucha model (secondary screening, L3 induced infection); assay type: in vivo, Mastomys coucha; conditions: for Macrofilaricidal activity (reduction in adult worm recovery over untreated control): DEC-C 50 mg/kg s.c. x 5 days, animals killed day 91 p.i.t.; for Sterile female worms: of surviving female parasites, day 91 p.i.t., control about 28 %; for Course of microfilaraemia: up to day 91 p.i.t.; for Regression line of microfilarial counts against days: trend of post-treatment microfilaraemia in Fig. 5a
Description: as §8, §9, §10
Mastomys coucha harbouring 5–7 month-old (L3 induced) B. malayi infection and showing progressive rise in microfilaraemia was used as secondary screening model. Mf count was recorded in peripheral blood (10 μl tail blood) just before initiation of the treatment (day 0), on day 7/8 and thereafter at weekly intervals till day 91 p.i.t. The animals were killed on day 91 p.i.t.
as §11, §12, §13
Statistical analyses were carried out using GraphPad Prism 3.0 software. Results were expressed as the mean ± standard deviation (S.D.) of data obtained from 4–6 animals in two experiments. The data were analysed by Student’s ‘t’ test and one-way ANOVA followed by Tukey’s multiple comparison test, as appropriate. Differences with P < 0.05 were considered significant. The microfilaricidal efficacy of antifilarials was determined by comparing the slopes of control, K003 and DEC treated groups. The slopes of the regression line were compared by standard procedure.

[6] = VERO C1008 cells (African green monkey kidney cells), concentration at which 50 % of VERO cells are killed, read-out: CC50
[7] = 100 % reduction in motility (death) of microfilariae
[8] = Brugia malayi, 50 % inhibition in motility of microfilariae
[9] = over DMSO control, test conc.: 500 μg/ml extract/fractions, 125 μg/ml compounds, 1000 μM DEC, 10/20 μM ivermectin
[10] = 100 % reduction in motility (death) of adult worms
[11] = Brugia malayi, 50 % inhibition in motility of adult worms
[12] = Brugia malayi, reference drugs, values in μM

Compound | CC50 (CC50 cytotoxicity assay; [6]) [µg/mL] | LC100 for Mf in MA [1, 7] [µg/mL] | IC50 [1, 8] [µg/mL] | inhibition at 125 µg/mL [2, 9] [%] | LC100 for AW in MA [3, 10] [µg/mL] | IC50 [3, 11] [µg/mL] | Effect on mf in peritoneal cavity (Brugia malayi [4]) | Sterilised female worms (%) (embryostatic activity) (Brugia malayi [4]) | Total worms, % reduction over untreated (macrofilaricidal activity) (Brugia malayi [4]) | Effect on adult worms (Brugia malayi [4]; DEC-C 25 mg/kg s.c. x 5 days) | Sterilised female worm count (Brugia malayi [4]) | Worms recovered, Female (Brugia malayi [4]) | Worms recovered, Male (Brugia malayi [4]) | LC100 for Mf in MA ([1]; reference drugs, values in μM) [µM] | Mean % inhibition in MTT reduction by AW [2, 9] [%] | LC100 for AW in MA ([3]; reference drugs, values in μM) [µM] | Worms recovered, Total (Brugia malayi [4]) | Macrofilaricidal activity (reduction in adult worm recovery over untreated control) (Brugia malayi [5]) | Sterile female worms (Brugia malayi [5]) [%] | Course of microfilaraemia (Brugia malayi [5]; peripheral blood) | further results
C=C1CCC2C(C)(C)C(OC(C)=O)CC[C@@]2(C)C1CC/C(C)=C/C(=O)O (some centres unmarked) [Compound K001, 3-Acetoxylabda-8(20),13-diene-15-oic acid] | 697 | 250 | 88.4 | 76.9 | 62.50 | 41.2 |  |  |  |  |  |  |  |  |  |  |  |  |  |  | 
ivermectin |  |  |  |  |  |  | did not affect mf in p.c. | (44.29 ± 5.15) % | (22.43) % | mild but not statistically significant effect on adult worms | 2.75 ± 0.96 | 6.25 ± 1.50 | 2.75 ± 0.96 | 2.5 | 5.80 | 5 |  |  |  |  | Sterilised female worms (%) (embryostatic activity) (Brugia malayi [4]; listed as ivermectin): 44%; CC50 (VERO Cell line C1008): 250 µM; IC50 ([1]; reference drugs, values in μM): 1.57 µM; IC50 ([3]; reference drugs, values in μM): 3.05 µM
C=C1CCC2C(C)(C)CCC[C@@]2(C)C1CC/C(C)=C/C(=O)O (some centres unmarked) [Compound K003, labda-8(20),13-diene-15-oic acid] | 180 | 31.25 | 18.6 | > 80 | 125 | 74.3 | ineffective against mf |  |  |  | 8.00 ± 0.71 | 8.00 ± 0.71 | 0.40 ± 0.89 |  | 82.05 |  | 8.40 ± 1.14 | ~ 54% and 53.94% | > 36 | had more or less no effect on microfilaraemia till day 42 p.i.t., but thereafter microfilaraemia stopped increasing as compared to control; also recorded: stopped any further rise in microfilaraemia after day 42 p.i.t | Regression line of microfilarial counts against days (Brugia malayi [5]): 183.65 ± 0.82 days; Reduction in motility of mf ([1]; in vitro): 100%; Reduction in motility of adult worms ([3]; in vitro): 100%
CCN(CC)C(=O)N1CCN(C)CC1 [DEC-C, Diethylcarbamazine-citrate] |  |  |  |  |  |  | did not affect mf count | (7.86 ± 11.41) % | (22.03) % | mild macrofilaricidal activity | 0.60 ± 0.89 | 6.60 ± 1.14 | 2.60 ± 0.55 | 500 |  | 1000 | 9.20 ± 1.48 | around 26.47% | 20 | gradually increased and relapsed by day 49 p.i.t.; the count further increased rapidly and crossed the pretreatment level by day 56 p.i.t. | Effect on female reproductive potential (Brugia malayi [4]; DEC-C 25 mg/kg s.c. x 5 days): did not affect mf count or female reproductive potential; Reduction in microfilarial count on day 7/8 p.i.t. (Brugia malayi [5]; DEC-C 50 mg/kg, peripheral blood): > 80%; Regression line of microfilarial counts against days (Brugia malayi [5]): -21.04 + 2.95 days; CC50 (CC50 cytotoxicity assay): 9000 µM; IC50 [1, 12]: 297 µM; IC50 [3, 12]: 315 µM
CC[C@H](CC[C@@H](C)[C@H]1CC[C@H]2[C@@H]3CC=C4C[C@@H](O)CC[C@]4(C)[C@H]3CC[C@]12C)C(C)C [Compound K002, Beta-sitosterol] |  | > 250 |  |  | > 250 |  |  |  |  |  |  |  |  |  |  |  |  |  |  |  | IC50 ([1]; Brugia malayi): > 250 µg/mL; inhibition at 125 µg/mL [2]: 38%; IC50 ([3]; Brugia malayi): > 250 µg/mL
